Data reported in patent US6737383B1, “Herbicidal oxadiazolidines” (priority 1999, dated 2004).

Experiments:
goosegrass = test: Test D goosegrass; assay type: in vivo, Eleusine indica; conditions: Preemergence, 0 to 100 scale
Procedure, shortened: (§1)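 Each weed species is planted in its own pot or compartment; preemergence doses go on the sandy loam surface within a day. The formulation is a surfactant-containing, non-phytotoxic solvent blend. Ratings come from visual comparison with untreated controls 14 to 21 days later, where 100 means complete control.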

Alexandergrass = test: Test D Alexandergrass; assay type: in vivo, Brachiaria plantaginea; conditions: Preemergence, 0 to 100 scale
Procedure, shortened: as §1

common groundsel = test: Test D common groundsel; assay type: in vivo, Senecio vulgaris; conditions: Preemergence, 0 to 100 scale
Procedure, shortened: as §1

surinam grass = test: Test D surinam grass; assay type: in vivo, Brachiaria decumbens; conditions: Preemergence, 0 to 100 scale
Procedure, shortened: as §1

wild poinsettia = test: Test C postemergence wild poinsettia; assay type: in vivo, Euphorbia heterophylla; conditions: 0 to 100 scale, 0 no effect, 100 complete control
Procedure, shortened: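 In this greenhouse assay, treated and untreated plants were kept for approximately 14 to 21 days following postemergence application, then rated by eye on a scale from 0 (no effect) to 100 (complete control).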

Johnson grass = test: Test D Johnson grass; assay type: in vivo, Sorghum halepense; conditions: Preemergence, 0 to 100 scale
Procedure, shortened: as §1

pitted morningglory = test: Test D pitted morningglory; assay type: in vivo, Ipomoea lacunosa; conditions: Preemergence, 0 to 100 scale
Procedure, shortened: as §1

common ragweed = test: Test D common ragweed; assay type: in vivo, Ambrosia elatior; conditions: Preemergence, 0 to 100 scale
Procedure, shortened: as §1

guineagrass = test: Test D guineagrass; assay type: in vivo, Panicum maximum; conditions: Preemergence, 0 to 100 scale
Procedure, shortened: as §1

itchgrass = test: Test D itchgrass; assay type: in vivo, Rottboellia exaltata; conditions: Preemergence, 0 to 100 scale
Procedure, shortened: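 Scoring used a 0–100 visual injury scale, with 0 meaning no effect and 100 complete control, assessed 14–21 days after application alongside untreated pots. Preemergence treatments went onto sandy loam surfaces of separately potted seeds within a day of sowing.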

Green foxtail [1] = test: Test D green foxtail; assay type: in vivo
Procedure, shortened: as §1

Green foxtail [2] = test: Test D green foxtail; assay type: in vivo; conditions: Preemergence, 0 to 100 scale
Procedure, shortened: as §1

tall mallow = test: Test D tall mallow; assay type: in vivo, Malva sylvestris; conditions: Preemergence, 0 to 100 scale
Procedure, shortened: as §1

bermuda-grass = test: Test D bermudagrass; assay type: in vivo, Cynodon dactylon; conditions: Preemergence, 0 to 100 scale
Procedure, shortened: as §1

purple nutsedge = test: Test D purple nutsedge; assay type: in vivo, Cyperus rotundus; conditions: Preemergence, 0 to 100 scale
Procedure, shortened: as §1

dallisgrass = test: Test D dallisgrass; assay type: in vivo, Paspalum dilatatum; conditions: Preemergence, 0 to 100 scale
Procedure, shortened: as §1

[3] = Rate 16 g/ha, 0 no injury, 100 complete control
[4] = Rate 32 g/ha, 0 no injury, 100 complete control
[5] = Rate 64 g/ha, 0 no injury, 100 complete control
[6] = Rate 125 g/ha, 0 no injury, 100 complete control
[7] = Rate 64 g/ha, Preemergence; 0 to 100 scale, 0 no injury, 100 complete control
[8] = Rate 125 g/ha, Preemergence; 0 to 100 scale, 0 no injury, 100 complete control

Q: Which results are given for `CC(C)N(C(=O)n1oc(=O)n(Cc2cccs2)c1=O)c1ccccc1` [Compound 103]?
A: Plant response rating, Goosegrass (goosegrass; [3]): 0; Plant response rating, Goosegrass (goosegrass; [4]): 30; Plant response rating, Goosegrass (goosegrass; [5]): 65; Plant response rating, Goosegrass (goosegrass; [6]): 85; Plant response rating, Goosegrass (goosegrass; Rate 250 g/ha): 98; Plant response rating, Goosegrass (goosegrass; Rate 500 g/ha): 100; Plant response rating, Alexandergrass (Alexandergrass; [3]): 0; Plant response rating, Alexandergrass (Alexandergrass; [4]): 0; Plant response rating, Alexandergrass (Alexandergrass; [5]): 0; Plant response rating, Alexandergrass (Alexandergrass; [6]): 40; Plant response rating, Alexandergrass (Alexandergrass; Rate 250 g/ha): 85; Plant response rating, Alexandergrass (Alexandergrass; Rate 500 g/ha): 95; Plant response rating, Com. groundsel (common groundsel; [3]): 0; Plant response rating, Com. groundsel (common groundsel; [4]): 0; Plant response rating, Com. groundsel (common groundsel; [5]): 0; Plant response rating, Com. groundsel (common groundsel; [6]): 0; Plant response rating, Com. groundsel (common groundsel; Rate 250 g/ha): 0; Plant response rating, Com. groundsel (common groundsel; Rate 500 g/ha): 0; Plant response rating, Surinam grass (surinam grass; [3]): 0; Plant response rating, Surinam grass (surinam grass; [4]): 0; Surinam grass plant response rating (surinam grass; [5]): 0; Surinam grass plant response rating (surinam grass; [6]): 0; Plant response rating, Surinam grass (surinam grass; Rate 250 g/ha): 0; Plant response rating, Surinam grass (surinam grass; Rate 500 g/ha): 40; Plant response rating Wild poinsettia (wild poinsettia; Rate 140 g/ha): 0; Plant response rating Wild poinsettia (wild poinsettia; Rate 280 g/ha): 0; Plant response rating Wild poinsettia (wild poinsettia; Rate 560 g/ha): 10; Plant response rating Wild poinsettia (wild poinsettia; Rate 1120 g/ha): 60; Plant response rating, Johnsongrass (Johnson grass; [3]): 0; Plant response rating, Johnsongrass (Johnson grass; [4]): 0; Plant response rating, Johnsongrass (Johnson grass; [5]): 0; Plant response rating, Johnsongrass (Johnson grass; [6]): 0; Plant response rating, Johnsongrass (Johnson grass; Rate 250 g/ha): 0; Plant response rating, Johnsongrass (Johnson grass; Rate 500 g/ha): 40; Plant response rating, P. morninglory (pitted morningglory; [3]): 0; Plant response rating, P. morninglory (pitted morningglory; [4]): 0; Plant response rating, P. morninglory (pitted morningglory; [5]): 0; Plant response rating, P. morninglory (pitted morningglory; [6]): 0; Plant response rating, P. morninglory (pitted morningglory; Rate 250 g/ha): 0; Plant response rating, P. morninglory (pitted morningglory; Rate 500 g/ha): 0; Plant response rating, C. ragweed (common ragweed; [3]): 0; Plant response rating, C. ragweed (common ragweed; [4]): 0; Plant response rating, C. ragweed (common ragweed; [5]): 0; Plant response rating, C. ragweed (common ragweed; [6]): 0; Plant response rating, C. ragweed (common ragweed; Rate 250 g/ha): 0; Plant response rating, C. ragweed (common ragweed; Rate 500 g/ha): 0; Plant response rating, Guineagrass (guineagrass; [3]): 0; Plant response rating, Guineagrass (guineagrass; [4]): 0; Plant response rating, Guineagrass (guineagrass; [5]): 0; Plant response rating, Guineagrass (guineagrass; [6]): 85; Plant response rating, Guineagrass (guineagrass; Rate 250 g/ha): 90; Plant response rating, Guineagrass (guineagrass; Rate 500 g/ha): 100; Plant response rating, Itchgrass (itchgrass; [3]): 0; Plant response rating, Itchgrass (itchgrass; [4]): 0; Plant response rating, Itchgrass (itchgrass; [5]): 0; Plant response rating, Itchgrass (itchgrass; [6]): 0; Plant response rating, Itchgrass (itchgrass; Rate 250 g/ha): 0; Plant response rating, Itchgrass (itchgrass; Rate 500 g/ha): 0; Plant response rating, Green foxtail (Green foxtail [1]; Preemergence; Rate 16 g/ha; 0 to 100 scale, 0 no injury, 100 complete control): 0; Plant response rating, Green foxtail (Green foxtail [1]; Preemergence; Rate 32 g/ha; 0 to 100 scale, 0 no injury, 100 complete control): 0; Plant response rating, Green foxtail (Green foxtail [1]; Rate 16 g/ha; Preemergence; 0 to 100 scale, 0 no injury, 100 complete control): 0; Plant response rating, Green foxtail (Green foxtail [1]; Rate 32 g/ha; Preemergence; 0 to 100 scale, 0 no injury, 100 complete control): 85; Green foxtail plant response rating (Green foxtail [1]; [7]): 50; Plant response rating, Green foxtail (Green foxtail [1]; [7]): 50; Green foxtail plant response rating (Green foxtail [1]; [8]): 100; Plant response rating, Green foxtail (Green foxtail [1]; [8]): 100; Plant response rating, Green foxtail (Green foxtail [1]; Rate 250 g/ha; Preemergence; 0 to 100 scale): 100; Plant response rating, Green foxtail (Green foxtail [1]; Rate 500 g/ha, Preemergence; 0 to 100 scale): 100; Plant response rating, Green foxtail (Green foxtail [2]; Rate 250 g/ha): 100; Plant response rating, Green foxtail (Green foxtail [2]; Rate 500 g/ha): 100; Plant response rating, Tall Mallow (tall mallow; [3]): 0; Plant response rating, Tall Mallow (tall mallow; [4]): 0; Tall Mallow plant response rating (tall mallow; [5]): 0; Tall Mallow plant response rating (tall mallow; [6]): 0; Plant response rating, Tall Mallow (tall mallow; Rate 250 g/ha): 0; Plant response rating, Tall Mallow (tall mallow; Rate 500 g/ha): 0; Plant response rating, Bermudagrass (bermuda-grass; [3]): 30; Plant response rating, Bermudagrass (bermuda-grass; [4]): 30; Plant response rating, Bermudagrass (bermuda-grass; [5]): 60; Plant response rating, Bermudagrass (bermuda-grass; [6]): 80; Plant response rating, Bermudagrass (bermuda-grass; Rate 250 g/ha): 100; Plant response rating, Bermudagrass (bermuda-grass; Rate 500 g/ha): 100; Plant response rating, Purple nutsedge (purple nutsedge; [3]): 0; Plant response rating, Purple nutsedge (purple nutsedge; [4]): 0; Purple nutsedge plant response rating (purple nutsedge; [5]): 0; Purple nutsedge plant response rating (purple nutsedge; [6]): 0; Plant response rating, Purple nutsedge (purple nutsedge; Rate 250 g/ha): 0; Plant response rating, Purple nutsedge (purple nutsedge; Rate 500 g/ha): 10; Plant response rating, Dallisgrass (dallisgrass; [3]): 10; Plant response rating, Dallisgrass (dallisgrass; [4]): 20; Plant response rating, Dallisgrass (dallisgrass; [5]): 45; Plant response rating, Dallisgrass (dallisgrass; [6]): 65; Plant response rating, Dallisgrass (dallisgrass; Rate 250 g/ha): 98; Plant response rating, Dallisgrass (dallisgrass; Rate 500 g/ha): 100
